Where two headings read alike, the source gives them in different places.
System: test plant species
Assay: Post-emergent herbicidal activity test (greenhouse, foliar spray, visual growth reduction)
Assay type: in vivo
Conditions: post-emergence, 336 h, 140 g ai/ha
Outline: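 Visual percent injury (0-100) rated 14 d after treatment, relative to nontreated and solvent-blank plants. Test plants at first or second true leaf stage received an overhead track-sprayer application at 187 L/ha. Compounds were formulated in aqueous acetone/DMSO carrier containing crop oil concentrate and X-77 surfactant.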

[1] = ALOMY: blackgrass (Alopecurus myosuroides), 14 days after application, read-out: Visual Growth Reduction (%) 14 Days After Application, ALOMY
[2] = AMARE: redroot pigweed (Amaranthus retroflexus), 14 days after application, read-out: Visual Growth Reduction (%) 14 Days After Application, AMARE
[3] = AVEFA: wild oat (Avena fatua), 14 days after application, read-out: Visual Growth Reduction (%) 14 Days After Application, AVEFA
[4] = CHEAL: lambsquarters (Chenopodium album), 14 days after application, read-out: Visual Growth Reduction (%) 14 Days After Application, CHEAL
[5] = CIRAR: canada thistle (Cirsium arvense), 14 days after application, read-out: Visual Growth Reduction (%) 14 Days After Application, CIRAR
[6] = CYPES: yellow nutsedge (Cyperus esculentus), 14 days after application, read-out: Visual Growth Reduction (%) 14 Days After Application, CYPES
[7] = DIGSA: crabgrass (Digitaria sanguinalis), 14 days after application, read-out: Visual Growth Reduction (%) 14 Days After Application, DIGSA
[8] = ECHCG: barnyardgrass (Echinochloa crus-galli), 14 days after application, read-out: Visual Growth Reduction (%) 14 Days After Application, ECHCG
[9] = IPOHE: ivy-leaf morning glory (Ipomoea hederacea), 14 days after application, read-out: Visual Growth Reduction (%) 14 Days After Application, IPOHE
[10] = ORYSA: rice (Oryza sativa), 14 days after application, read-out: Visual Growth Reduction (%) 14 Days After Application, ORYSA
[11] = SETFA: giant foxtail (Setaria faberi), 14 days after application, read-out: Visual Growth Reduction (%) 14 Days After Application, SETFA
[12] = SORVU: grain sorghum (Sorghum vulgare), 14 days after application, read-out: Visual Growth Reduction (%) 14 Days After Application, SORVU
[13] = STEME: common chickweed (Stellaria media), 14 days after application, read-out: Visual Growth Reduction (%) 14 Days After Application, STEME
[14] = TRZAS: wheat, spring (Triticum aestivum), 14 days after application, read-out: Visual Growth Reduction (%) 14 Days After Application, TRZAS
[15] = KCHSC: kochia (Bassia scoparia), 14 days after application, read-out: Visual Growth Reduction (%) 14 Days After Application, KCHSC

Structure (SMILES) | pest or weed control at 140 g/ha [1] [%] | pest or weed control at 140 g/ha [2] [%] | pest or weed control at 140 g/ha [3] [%] | pest or weed control at 140 g/ha [4] [%] | pest or weed control at 140 g/ha [5] [%] | pest or weed control at 140 g/ha [6] [%] | pest or weed control at 140 g/ha [7] [%] | pest or weed control at 140 g/ha [8] [%] | pest or weed control at 140 g/ha [9] [%] | pest or weed control at 140 g/ha [10] [%] | pest or weed control at 140 g/ha [11] [%] | pest or weed control at 140 g/ha [12] [%] | pest or weed control at 140 g/ha [13] [%] | pest or weed control at 140 g/ha [14] [%] | pest or weed control at 140 g/ha [15] [%] | further results
COC(=O)c1nc(-c2ccc(Cl)c(OC)c2F)ncc1Cl [F115, methyl 5-chloro-2-(4-chloro-2-fluoro-3-methoxyphenyl)pyrimidine-4-carboxylate] | 0 to 29 | 0 to 29 | 0 to 29 | 0 to 29 | 60 to 74 | 0 to 29 | 0 to 29 | 0 to 29 | 30 to 44 | 0 to 29 | 0 to 29 | 0 to 29 | 0 to 29 | 0 to 29 |  | 
COC(=O)c1nc(-c2cc3c(cc2F)OC(F)(F)O3)ccc1Cl [F172, Methyl 3-chloro-6-(2,2,6-trifluorobenzo[d] [1,3]dioxol-5-yl)picolinate] | 30 to 44 | 95 to 100 | 30 to 44 | 85 to 94 | 60 to 74 | 75 to 84 | 85 to 94 | 75 to 84 | 95 to 100 | 0 to 29 | 45 to 59 | 95 to 100 | 0 to 29 | 45 to 59 | 30 to 44 | 
COC(=O)c1nc(-c2ccc(SC(F)(F)F)cc2Cl)c(F)cc1Cl [F135, Methyl 3-chloro-6-(2-chloro-4-((trifluoromethyl)thio)phenyl)-5 fluoropicolinate] | 30 to 44 | 95 to 100 | 60 to 74 | 85 to 94 | 95 to 100 | 0 to 29 | 95 to 100 | 45 to 59 | 95 to 100 | 0 to 29 | 85 to 94 | 95 to 100 | 0 to 29 | 45 to 59 | 85 to 94 | 
COC(=O)c1nc(-c2ccccc2)c(F)cc1Cl [F219, Methyl 3-chloro-5-fluoro-6-phenylpicolinate] |  |  |  |  |  |  |  | 0 to 29 | 45 to 59 | 0 to 29 | 0 to 29 | 60 to 74 | 0 to 29 | 0 to 29 | 0 to 29 | pest or weed control at 140 g/ha (blackgrass (Alopecurus myosuroides), 14 Days After Application, read-out: Visual Growth Reduction (%) ALOMY): 0 to 29%; pest or weed control at 140 g/ha (canada thistle (Cirsium arvense), 14 Days After Application, read-out: Visual Growth Reduction (%) CIRAR): 0 to 29%; pest or weed control at 140 g/ha (crabgrass (Digitaria sanguinalis), 14 Days After Application, read-out: Visual Growth Reduction (%) DIGSA): 30 to 44%; pest or weed control at 140 g/ha (lambsquarters (Chenopodium album), 14 Days After Application, read-out: Visual Growth Reduction (%) CHEAL): 45 to 59%; pest or weed control at 140 g/ha (redroot pigweed (Amaranthus retroflexus), 14 Days After Application, read-out: Visual Growth Reduction (%) AMARE): 0 to 29%; pest or weed control at 140 g/ha (wild oat (Avena fatua), 14 Days After Application, read-out: Visual Growth Reduction (%) AVEFA): 0 to 29%; pest or weed control at 140 g/ha (yellow nutsedge (Cyperus esculentus), 14 Days After Application, read-out: Visual Growth Reduction (%) CYPES): 0 to 29%
COC(=O)c1nc(-c2ncc(C(F)(F)F)cc2Cl)ccc1Cl [F101, methyl 3′,5-dichloro-5′-(trifluoromethyl)-[2,2′-bipyridine]-6-carboxylate] | 0 to 29 | 95 to 100 | 0 to 29 | 95 to 100 | 85 to 94 | 75 to 84 | 95 to 100 | 85 to 94 | 95 to 100 | 0 to 29 | 75 to 84 | 95 to 100 | 0 to 29 | 60 to 74 | 95 to 100 | 

Reference: US20230017045A1, “PYRIDINE AND PYRIMIDINE CARBOXYLATE HERBICIDES AND METHODS OF USE THEREOF” (Dow AgroSciences LLC, priority 2017, published 2023)
